Data from US6914045B2, “Glycopeptide antibiotics” (Wyeth Holdings Corporation, priority 2001, dated 2005).
≈ marks a conversion by molar mass, not a printed value.

Assays:
Assay in all cases: in vitro antibacterial evaluation, MIC by broth dilution
Type in all cases: cell-based
Enterococcus sp. = conditions: broth dilution, 18 hours at 35° C.
Procedure, shortened: (§1)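 Broth dilution per NCCLS M7-A2 in Mueller-Hinton II medium, inoculum 5×10^5 CFU/mL, antibiotic range 64-0.06 μg/mL. MIC taken as lowest concentration inhibiting growth; Gram-positive panel includes recent clinical isolates resistant to methicillin, penicillin and/or vancomycin.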

Staphylococcus sp. = conditions: broth dilution, 18 hours at 35° C.
Procedure, shortened: as §1

Streptococcus sp. = conditions: broth dilution, 18 hours at 35° C.
Procedure, shortened: as §1

Escherichia coli = conditions: 18 hours at 35° C.

Compound: CC(c1ccccc1)C1NC(=O)CNC(=O)C(CO)NC(=O)C(C(O)C2CNC(=N)N2C2OC(CO)C(O)C3OC(C)(C)OC32)NC(=O)C(C(O)C2CNC(=N)N2)NC(=O)C(Cc2ccc(OC3OC(CO)C(OC4OC(CO)C(O)C5OC(C)(C)OC45)C4OC(C)(C)OC34)cc2)NC1=O (stereo not shown) [Example 229a]
- MIC Enterococcus avium (GC 4558) (Enterococcus sp.): 128 µg/mL (≈ 90.4 µM)
- MIC Enterococcus faecalis (ATCC 29212) (Enterococcus sp.): >128 µg/mL
- MIC Enterococcus faecalis (GC 2242) (Enterococcus sp.): >128 µg/mL
- MIC Enterococcus faecalis (GC 2691) (Enterococcus sp.): >128 µg/mL
- MIC Enterococcus faecalis (GC 3059) (Enterococcus sp.): >128 µg/mL
- MIC Enterococcus faecalis (GC 4552) (Enterococcus sp.): >128 µg/mL
- MIC Enterococcus faecalis (GC 4553) (Enterococcus sp.): >128 µg/mL
- MIC Enterococcus faecalis (GC 4554) (Enterococcus sp.): >128 µg/mL
- MIC Enterococcus faecalis (GC 6189) (Enterococcus sp.): >128 µg/mL
- MIC Enterococcus faecium (GC 2243) (Enterococcus sp.): >128 µg/mL
- MIC Enterococcus faecium (GC 4556) (Enterococcus sp.): >128 µg/mL
- MIC Enterococcus faecium (GC 4557) (Enterococcus sp.): >128 µg/mL
- MIC Enterococcus faecalis (ATCC 29212) (Enterococcus sp.; inoculum 5×10^5 CFU/mL, strain ATCC 29212): >128 µg/mL
- MIC Enterococcus faecalis (GC 2242) (Enterococcus sp.; inoculum 5×10^5 CFU/mL, strain GC 2242): >128 µg/mL
- MIC Enterococcus faecium (GC 2243) (Enterococcus sp.; inoculum 5×10^5 CFU/mL, strain GC 2243): >128 µg/mL
- MIC Enterococcus faecalis (GC 2691) (Enterococcus sp.; inoculum 5×10^5 CFU/mL, strain GC 2691): >128 µg/mL
- MIC Enterococcus faecalis (GC 3059) (Enterococcus sp.; inoculum 5×10^5 CFU/mL, strain GC 3059): >128 µg/mL
- MIC Enterococcus faecalis (GC 4552) (Enterococcus sp.; inoculum 5×10^5 CFU/mL, strain GC 4552): >128 µg/mL
- MIC Enterococcus faecalis (GC 4553) (Enterococcus sp.; inoculum 5×10^5 CFU/mL, strain GC 4553): >128 µg/mL
- MIC Enterococcus faecalis (GC 4554) (Enterococcus sp.; inoculum 5×10^5 CFU/mL, strain GC 4554): >128 µg/mL
- MIC Enterococcus faecium (GC 4556) (Enterococcus sp.; inoculum 5×10^5 CFU/mL, strain GC 4556): >128 µg/mL
- MIC Enterococcus faecium (GC 4557) (Enterococcus sp.; inoculum 5×10^5 CFU/mL, strain GC 4557): >128 µg/mL
- MIC Enterococcus avium (GC 4558) (Enterococcus sp.; inoculum 5×10^5 CFU/mL, strain GC 4558): 128 µg/mL (≈ 90.4 µM)
- MIC Enterococcus faecalis (GC 6189) (Enterococcus sp.; inoculum 5×10^5 CFU/mL, strain GC 6189): >128 µg/mL
- MIC Coagulase Negative Staphylococcus (GC 4547) (Staphylococcus sp.): >128 µg/mL
- MIC Coagulase Negative Staphylococcus (GC 4548) (Staphylococcus sp.): >128 µg/mL
- MIC Coagulase Negative Staphylococcus (GC 4549) (Staphylococcus sp.): >128 µg/mL
- MIC Coagulase Negative Staphylococcus (GC 4551) (Staphylococcus sp.): >128 µg/mL
- MIC Coagulase Negative Staphylococcus (GC 6257) (Staphylococcus sp.): >128 µg/mL
- MIC Staphylococcus aureus (ATCC 29213) (Staphylococcus sp.): >128 µg/mL
- MIC Staphylococcus aureus (GC 1131) (Staphylococcus sp.): >128 µg/mL
- MIC Staphylococcus aureus (GC 3051) (Staphylococcus sp.): >128 µg/mL
- MIC Staphylococcus aureus (GC 3053) (Staphylococcus sp.): >128 µg/mL
- MIC Staphylococcus aureus (GC 4541) (Staphylococcus sp.): >128 µg/mL
- MIC Staphylococcus aureus (GC 4542) (Staphylococcus sp.): >128 µg/mL
- MIC Staphylococcus aureus (GC 4544) (Staphylococcus sp.): >128 µg/mL
- MIC Staphylococcus aureus (GC 4545) (Staphylococcus sp.): >128 µg/mL
- MIC Staphylococcus aureus-SMITH (GC 4543) (Staphylococcus sp.): >128 µg/mL
- MIC Staphylococcus haemolyticus (GC 4546) (Staphylococcus sp.): >128 µg/mL
- MIC Staphylococcus aureus (ATCC 29213) (Staphylococcus sp.; strain ATCC 29213): >128 µg/mL
- MIC Staphylococcus aureus (GC 1131) (Staphylococcus sp.; strain GC 1131): >128 µg/mL
- MIC Staphylococcus aureus (GC 3051) (Staphylococcus sp.; strain GC 3051): >128 µg/mL
- MIC Staphylococcus aureus (GC 3053) (Staphylococcus sp.; strain GC 3053): >128 µg/mL
- MIC Staphylococcus aureus (GC 4541) (Staphylococcus sp.; strain GC 4541): >128 µg/mL
- MIC Staphylococcus aureus (GC 4542) (Staphylococcus sp.; strain GC 4542): >128 µg/mL
- MIC Staphylococcus aureus-SMITH (GC 4543) (Staphylococcus sp.; strain GC 4543): >128 µg/mL
- MIC Staphylococcus aureus (GC 4544) (Staphylococcus sp.; strain GC 4544): >128 µg/mL
- MIC Staphylococcus aureus (GC 4545) (Staphylococcus sp.; strain GC 4545): >128 µg/mL
- MIC Staphylococcus haemolyticus (GC 4546) (Staphylococcus sp.; strain GC 4546): >128 µg/mL
- MIC Coagulase Negative Staphylococcus (GC 4547) (Staphylococcus sp.; strain GC 4547): >128 µg/mL
- MIC Coagulase Negative Staphylococcus (GC 4548) (Staphylococcus sp.; strain GC 4548): >128 µg/mL
- MIC Coagulase Negative Staphylococcus (GC 4549) (Staphylococcus sp.; strain GC 4549): >128 µg/mL
- MIC Coagulase Negative Staphylococcus (GC 4551) (Staphylococcus sp.; strain GC 4551): >128 µg/mL
- MIC Coagulase Negative Staphylococcus (GC 6257) (Staphylococcus sp.; strain GC 6257): >128 µg/mL
- MIC Streptococcus agalactiae (GC 4564) (Streptococcus sp.): >128 µg/mL
- MIC Streptococcus pneumoniae (ATCC 6301) (Streptococcus sp.): >128 µg/mL
- MIC Streptococcus pneumoniae (GC 1894) (Streptococcus sp.): >128 µg/mL
- MIC Streptococcus pneumoniae (GC 4565) (Streptococcus sp.): >128 µg/mL
- MIC Streptococcus pyogenes (GC 4563) (Streptococcus sp.): >128 µg/mL
- MIC Streptococcus pneumoniae (ATCC 6301) (Streptococcus sp.; inoculum 5×10^5 CFU/mL, strain ATCC 6301): >128 µg/mL
- MIC Streptococcus pneumoniae (GC 1894) (Streptococcus sp.; inoculum 5×10^5 CFU/mL, strain GC 1894): >128 µg/mL
- MIC Streptococcus pyogenes (GC 4563) (Streptococcus sp.; inoculum 5×10^5 CFU/mL, strain GC 4563): >128 µg/mL
- MIC Streptococcus agalactiae (GC 4564) (Streptococcus sp.; inoculum 5×10^5 CFU/mL, strain GC 4564): >128 µg/mL
- MIC Streptococcus pneumoniae (GC 4565) (Streptococcus sp.; inoculum 5×10^5 CFU/mL, strain GC 4565): >128 µg/mL
- MIC Escherichia coli (ATCC 25922) (Escherichia coli): >128 µg/mL
- MIC Escherichia coli (GC 4559) (Escherichia coli): >128 µg/mL
- MIC Escherichia coli (GC 4560) (Escherichia coli): >128 µg/mL
